Data published in article PMC6522510 (Nature Communications, 2019).
Read-outs that look alike come from different tables or passages of the source.

What was measured:
Design in all cases: species or system AML cell lines (8); Primary HTS, single concentration about 10 uM, Cell Titer Glo viability; log10 luminescence, per cent inhibition relative to cycloheximide control
Details in all cases: 72 h, relative to cycloheximide control, log10 luminescence, inhibitor
CMK = system: CMK
U937 = system: U937
CHRF288-11 = system: CHRF288-11
ML-2 = system: ML-2
MV4-11 = system: MV4-11
CMS = system: CMS
MOLM-13 = system: MOLM-13
M07e = system: M07e

Structure (SMILES)	CMK %inh (CMK)	U937 %inh (U937)	CHRF288-11 %inh (CHRF288-11)	ML-2 %inh (ML-2)	MV4-11 %inh (MV4-11)	CMS %inh (CMS)	MOLM-13 %inh (MOLM-13)	M07e %inh (M07e)	CMK %inh (CMK; CMK %inh, 10 µM)	U937 %inh (U937; U937 %inh, 10 µM)	CHRF288-11 %inh (CHRF288-11; CHRF288-11 %inh, 10 µM)	ML-2 %inh (ML-2; ML-2 %inh, 10 µM)	MV4-11 %inh (MV4-11; MV4-11 %inh, 10 µM)	CMS %inh (CMS; CMS %inh, 10 µM)	MOLM-13 %inh (MOLM-13; MOLM-13 %inh, 10 µM)	M07e %inh (M07e; M07e %inh, 10 µM)
O=C(O[C@H]1CN[C@H](C#Cc2cc3ncnc(Nc4ccc5c(ccn5Cc5cc(F)ccc5F)c4)c3s2)C1)N1CCOCC1 [SJ000573160-1, U20298/150/2]	5.697%	14.13%	10.62%	4.843%	8.297%	12.05%	10.52%	-0.7728%								
Nc1nonc1-c1nc2cnccc2n1C1CC1 [SJ000573161-1, SD100950-085A1]	26.4%	17.71%	4.079%	6.372%	17.34%	4.949%	2.819%	-4.33%								
COC(=O)Nc1nc2cc(Oc3ccc(NC(=O)Nc4cccc(C(=O)O)c4)cc3)ccc2[nH]1 [SJ000573163-1, T261/87/3]	83.28%	31.9%	17.31%	30.21%	11.57%	3.532%	34.2%	13.83%								
NC(=O)c1cccc(Nc2nccc(Nc3cccc(F)c3)n2)c1 [SJ000573164-1, R5869/121/5]	19.08%	1.036%	8.575%	3.111%	21.87%	5.376%	57.29%	12.07%								
COC(=O)Nc1nc2cc(Oc3ccc(NC(=O)Nc4ccccc4)cc3)ccc2[nH]1 [SJ000573165-1, T261/64/2]	109.7%	81.37%	29.47%	57.46%	69.12%	99.63%	87.75%	91.37%								
Cc1nnc(-c2ccc(C)c(-c3ccc(C(=O)NCc4ccc(Cl)cc4)cc3)c2)o1 [SJ000573166-1, R5419/62/6]	2.525%	3.066%	-0.1255%	2.787%	-0.3161%	4.153%	2.185%	6.199%								
NC(=O)c1sc(-n2cnc3ccc(C(F)(F)F)cc32)cc1OCc1ccccc1Br [SJ000573167-1, U19121/196/1]	-1.461%	43.5%	1.336%	22.34%	1.988%	15.36%	2.5%	5.031%								
Nc1nccc(-c2c(-c3ccc(F)cc3)ncn2C2CCNCC2)n1 [SJ000573168-1, JB-19127-269D | LD19161-244A1]									44.14%	27.96%	34.51%	22.46%	77.89%	7.951%	64.89%	19.95%
Nc1nccc(-c2c(-c3ccc(F)cc3)ncn2C2CCNCC2)n1 [SJ000573168-2, JB-19127-269D | LD19161-244A1]								16.87%	34.82%	15.47%	101.4%	28.94%	54.74%	15.45%	78.79%	
CC1=C(C(=O)Nc2ccc3[nH]nc(C)c3c2)C(c2ccc(C(F)(F)F)cc2)CC(=O)N1 (centres unmarked) [SJ000573169-1, SD204573-190A1]	106.1%	19.8%	46.87%	13.81%	29.81%	35.88%	15.8%	28.71%								
OCCCNc1nccc(-c2c(-c3ccc(F)cc3)nn3cc(C(F)(F)F)ccc23)n1 [SJ000573170-1, R5361/115/1]	125%	1.034%	127.7%	-1.781%	-0.4985%	105.9%	-2.069%	-1.662%								
c1ccc(COc2ccc(Nc3ncnc4ccc(-c5ccco5)cc34)cc2)cc1 [SJ000573171-1, C3157/71/1]	6.655%	10.84%	-4.196%	3.492%	14.65%	1.088%	27.04%	-0.2498%								
O=C1NC(=O)C(c2cccc(Cl)c2)=C1Nc1ccc(O)c(Cl)c1 [SJ000573172-1, RS98844-062A3]	35.38%	3.736%	12.93%	2.635%	8.124%	2.425%	11.18%	6.042%								
c1ccc(-c2nc3n(c2-c2ccc4c(c2)OCO4)CCC3)nc1 [SJ000573174-1, JB42196-142B1]	48.28%	1.96%	104.5%	5.523%	4.462%	32.28%	37.41%	7.377%								
CN(c1ccc(NC(=O)NCCN2CCOCC2)cc1)c1ccnc(Nc2ccc(CS(C)(=O)=O)cc2)n1 [SJ000573175-1, U17983/92/2]	-0.4287%	4.061%	-0.5072%	2.492%	85.52%	0.2292%	82.21%	2.849%								
Oc1cccc(-c2nc(-c3ccccc3)[nH]c2-c2ccncc2)c1 [SJ000573176-1, KH49127-012A1]	4.668%	2.636%	2.324%	2.359%	3.826%	5.24%	8.153%	1.15%								
CCN(CC)S(=O)(=O)c1ccc(OC)c(Nc2ncc(-c3ccccc3)o2)c1 [SJ000573177-1, U14961/35/1]	11.05%	3.148%	-8.829%	1.232%	74.67%	2.203%	13.29%	-3.903%								
COc1cccc(-n2nc(C)c3c(N/N=C(\C)c4ccncc4)ncnc32)c1 [SJ000573178-1, U17747/163/1]	-0.9949%	-2.387%	-4.056%	-1.055%	-0.7035%	0.07052%	-1.351%	-1.478%								
O=C1NC(=O)C(c2cccc(Cl)c2)=C1Nc1ccc(Cl)c(C(=O)O)c1 [SJ000573179-1, RS98844-062A1]	-1.769%	1.114%	-5.305%	0.225%	-0.02775%	-1.594%	-0.7042%	-0.5868%								
